Results on three compounds are retold here after patent publication US8841325B2, “Immunomodulatory compounds for the restoration of vitamin D sensitivity in vitamin D resistant tumor cells” (Celgene Corporation, priority 2009, dated 2014).

Holding throughout (type): cell-based
One assay has as its system HBL-100 cells. In words: Cell viability by neutral red assay, HBL-100. To be noted: Homo sapiens, HBL-100, 144 h; ABT-263, 6 days, FIG. 16; read-out: IC50 (cell viability / killing). The protocol: (§1) After 6 days treatment, cells were seeded into 24 well plates at a density of 1×10^4 cells/wells. After 24 h, cells were treated with reagents or vehicle for up to six days. At the end of the incubation period, medium was removed and cells were incubated with neutral red solution (40 μg/ml in phenol red and serum free DMEM) for 2 h at 37° C. After removal of the neutral red solution, wells were rinsed once with 1 ml 4% formal saline containing 0.5% CaCl2. Plates were inverted on paper towel to drain and 200 μl of elution fluid (1% acetic acid in 50% ethanol) was added. Following incubation at room temperature for 30 min with gentle shaking, absorbance at 550 nm was determined
In order to validate the previous results obtained in MDA-MB-231 cells, two other vitamin D resistant cell lines MCF-7/VD^R and HBL-100 cells, were investigated. First the effect of lenalidomide on these cells lines were investigated. To this end, cells were treated for up to 6 days with different concentrations of lenalidomide (0 μM up to 10 μM). Cell viability was measured by neutal red dye assay (FIG. 13).
More particularly, FIG. 13 illustrates the effects of lenalidomide treatment on MCF-7/VDR and HBL-100 viability. MCF-7/VDR and HBL-100 cells were treated for up to 6 days with different concentrations of lenalidomide (0 μM up to 10 μM). Cell viability was measured by neutral red dye assay. Results are mean of three independent experiments (each made in quadruplicate).
Cell viability was measured by neutral red dye assay (FIG. 14).
More particularly, FIG. 14 illustrates the effects of lenalidomide/1, 25-D3 co-treatment on MCF-7/VDR and HBL-100 viability. MCF-7/VDR and HBL-100 cells were treated for up to 6 days with different concentrations of lenalidomide (0.01 μM up to 1 μM) alone or in combination with different concentrations of 1, 25-D3 (0 for up to 1000 nM). Cell viability was measured by neutral red dye assay. Results are mean of three independent experiments (each made in quadruplicate).
(§2) To accomplish this, cells were treated for up to 6 days with different concentrations of a BCL-2 inhibitor, ABT-263 ([…]). Non-treated cells were used as a control. After 6 days of treatment, cell viability was measured by neutral red assay (FIG. 16). In the three cell lines, BCL-2 inhibition leads to cell death. The IC50 is almost equivalent in all cell lines (1 μM+/−0.2 μM).
(§3) More particularly, FIG. 16 illustrates the effects of BCL-2 inhibition on MCF-7VD^R and HBL-100 viability. MDA-MB-231, MCF-7/VD^R and HBL-100 cells were treated for up to 6 days with different concentrations of ABT-263 (0.2 up to 20 μM). Non-treated cells were used as a control. After 6 days of treatment, cell viability was measured by neutral red assay. Results are mean of three independent experiments (each made in quadruplicate).

For a further assay, the system named is MCF-7/VD^R cells. In words: Cell viability by neutral red assay, MCF-7/VD^R. To be noted: Homo sapiens, MCF7, 144 h; ABT-263, 6 days, FIG. 16; read-out: IC50 (cell viability / killing).
Source text: (§4) Non-treated cells were used as a control.
as §4

Assay [1] concerns MDA-MB-231 cells. Nature of the assay: Cell viability by neutral red assay, MDA-MB-231. The settings on record: for effect on cell viability: single agent, up to 6 days, Thalidomide 0.01-100 μM, CC-4047 and lenalidomide 0.001-10 μM, FIG. 6A. Here is the method:
(§5) Cells were seeded in 24 wells plates at a density of 10^4 cells per well and allowed to adhere for 24 hours. […] The drug was renewed every 2 days. Cell viability was then determined by neutral red assay, measuring absorbance at 550 nm.
as §1, §2, §3

Assay [2] relates to MCF-7 cells. Nature of the assay: Cell viability by neutral red assay, MCF-7. The settings on record: single agent, up to 6 days, Thalidomide 0.01-100 μM, CC-4047 and lenalidomide 0.001-10 μM, FIG. 6A. The protocol:
as §5, §1

The subject of assay [3] is MCF-12A cells. Nature of the assay: Cell viability by neutral red assay, MCF-12A. The settings on record: single agent, up to 6 days, Thalidomide 0.01-100 μM, CC-4047 and lenalidomide 0.001-10 μM, FIG. 6A. Here is the method:
as §5, §1

Assay [4] concerns MCF-12A cells. Nature of the assay: Cell growth by Sulphorhodamine B (SRB) assay, MCF-12A. The settings on record: single agent, up to 6 days, Thalidomide 0.01-100 μM, CC-4047 and lenalidomide 0.001-10 μM, FIG. 6B. The protocol:
(§6) Cells were seeded in 24 wells plates at a density of 10^4 cells per well and allowed to adhere for 24 hours. […] Each treatment was carried out for up to 7 days, but renewed every 2 days. Cell growth was then determined by Sulphorhodamine B (SRB) assay, measuring absorbance at 550 nm.
(§7) After 6 days treatment, cells were seeded in 24 well plates at a density of 1×10^4 cells/well. After 24 h cells were treated with reagents or vehicle for up to six days. Cells were treated for up to 6 days with log doses of Thalidomide (0.1 μM up to 100 μM), pomalidomide and lenalidomide (0 μM up to 10 μM). At the end of each experiment, cells were fixed to the bottom of the well by addition of ice-cold 50% w/v trichloroacetic acid (TCA) to give a final concentration of 10% TCA. Plates were incubated at 4° C. for 30 minutes and then washed with distilled water. Plates were allowed to air-dry at room temperature before staining with 0.4% w/v SRB in 1% v/v acetic acid and incubated for 15 minutes on a shaker. The plates were then extensively washed with 1% acetic acid to remove unbound dye and were again allowed to air-dry at room temperature. Incorporated dye was solubilised with 200 μl […] Tris base. 100 μl aliquots were transferred to a 96 well plate and absorbance at 550 nm was determined

Assay [5] has as its system MCF-7 cells. Nature of the assay: Cell growth by Sulphorhodamine B (SRB) assay, MCF-7. To be noted: single agent, up to 6 days, Thalidomide 0.01-100 μM, CC-4047 and lenalidomide 0.001-10 μM, FIG. 6B. Here is the method: as §6, §7
In assay [6] the test system is MDA-MB-231 cells. Nature of the assay: Cell growth by Sulphorhodamine B (SRB) assay, MDA-MB-231. The protocol:
Cells were seeded in 24 wells plates at a density of 10^4 cells per well and allowed to adhere for 24 hours. To determine the combination effects of the drugs, cells were treated with 100 nM 1,25 D3 and 10 nM 1-oxo-2-(2,6-dioxopiperidin-3-yl)-4-aminoisoindoline or 1,3-dioxo-2-(2,6-dioxopiperidin-3-3-yl)-4-aminoisoindoline. Each treatment was carried out for up to 7 days, but renewed every 2 days. Cell growth was then determined by Sulphorhodamine B (SRB) assay, measuring absorbance at 550 nm.
Cells were seeded in 24 wells plates at a density of 10^4 cells per wekk and allowed to adhere for 24 hours. To determine the combination effects of the drugs, cells were treated with 100 nM 1,25 D3 and varying doses of 1-oxo-2-(2,6-dioxopiperidin-3-yl)-4-aminoisoindoline or 1,3-dioxo-2-(2,6-dioxopiperidin-3-yl)-4-aminoisoindoline. Each treatment was carried out for up to 7 days, but renewed every 2 days. Cell growth was then determined by Sulphorhodamine B (SRB) assay, measuring absorbance at 550 nm.
as §7

Turning to `CC1(C)CCC(c2ccc(Cl)cc2)=C(CN2CCN(c3ccc(C(=O)NS(=O)(=O)c4ccc(N[C@H](CCN5CCOCC5)CSc5ccccc5)c(S(=O)(=O)C(F)(F)F)c4)cc3)CC2)C1` [ABT-263], the IC50 was determined as 1000 nM in the assay with HBL-100 cells; 1000 nM with MCF-7/VD^R cells; 1000 nM in the assay with MDA-MB-231 cells [1] (Homo sapiens, MDA-MB-231, 144 h, ABT-263, 6 days, FIG. 16, read-out: IC50 (cell viability / killing)).
For the compound `Nc1cccc2c1C(=O)N(C1CCC(=O)NC1=O)C2=O` (stereo not shown) [Pomalidomide, 1,3-dioxo-2-(2,6-dioxopiperidin-3-yl)-4-aminoisoindoline], the “effect on cell viability” value with MCF-7 cells [2], in the assay on MDA-MB-231 cells [1] and with MCF-12A cells [3] was “do not Affect” each time. In addition, the “effect on cell growth” value with MCF-12A cells [4] is listed as “do not Affect”; in the assay with MCF-7 cells [5], “do not Affect”; in the assay with MDA-MB-231 cells [6] (single agent, 0.001-10 μM, up to 6 days), “no effects”. For the same compound, the “minimal concentration giving statistically significant inhibition of growth” value with MDA-MB-231 cells [6] (in the presence of 100 nM 1,25 D3, up to 7 days, FIG. 3) was determined as 0.1 µM.
Regarding `O=C1CCC(N2C(=O)c3ccccc3C2=O)C(=O)N1` (stereo not shown) [Thalidomide], the “effect on cell viability” value in the assay on MCF-7 cells [2], with MDA-MB-231 cells [1] and with MCF-12A cells [3] was “do not Affect” each time. For the same compound, the “effect on cell growth” value in the assay on MCF-12A cells [4] and with MCF-7 cells [5] was “do not Affect” throughout. In the assay on MDA-MB-231 cells [6] (Homo sapiens, MDA-MB-231, 144 h, single agent, 100 μM Thalidomide (highest dose), up to 6 days), the inhibition at 100 µM amounted to 20%.
